According to PMC11352108, “Anti-Biofilm and Anti-Inflammatory Properties of the Truncated Analogs of the Scorpion Venom-Derived Peptide IsCT against Pseudomonas aeruginosa” (Antibiotics, 2024):
Where no end group is shown, it is not given here.

Assays:
[1] = test system: RAW 264.7 macrophages; test: Cytotoxicity assay (MTT); type: cell-based, murine; details: 48 h; for % Viability, Exp.1: replicate Exp.1; for % Viability, Exp.2: replicate Exp.2
Method: The murine macrophage cell line RAW264.7 (TIB-71) was obtained from American Type Culture Collection (ATCC; Manassas, VA, USA). RAW 264.7 cells were cultured in DMEM (HyClone^TM, Logan, UT, USA) supplemented with 10% (v/v) heat-inactivated fetal bovine serum (Gibco, Fisher Scientific, Göteborg, Sweden), 2 mM L-glutamine (PAA Laboratories GmbH, Pasching, Austria), 10 mM 4-(2-hydroxyethyl)-1-piperazineethanesulfonic acid (HyClone^TM, Logan, UT, USA), 100 U/mL penicillin, and 100 µg/mL streptomycin (PAA). RAW 264.7 cells were grown in a 5% CO2 at 37 °C.
The cytotoxic effect of the IsCT-Δ6-8 peptide was assessed using the tetrazolium-based 3-(4,5-dimethylthiazol-2-yl)-2,5-diphenyltetrazolium bromide (MTT) assay. RAW 264.7 cells at 3.5 × 10^5 cells were seeded in a 96-well microtiter plate and incubated at 37 °C for 1 h under 5% CO2. Then, the cells were treated with or without the IsCT-Δ6-8 peptide at concentrations ranging from 37.5 μM to 150 μM for 48 h at 37 °C under 5% CO2. After incubation, 20 µL of MTT (5 mg/mL) was added in each well, and the plate was incubated for another 3 h. The supernatant was then discarded, and 100 µL of DMSO was added to solubilize formazan crystals. The plate was subsequently read at OD540 nm using a BioTek Synergy HT microplate reader. The percent cell viability was calculated using the following equation:(2) % Cell viability=OD of treated cells/OD of untreated cells×100

[2] = test system: pyocyanin production by P. aeruginosa PAO1; test: Pyocyanin assay (chloroform extraction); type: cell-based, Pseudomonas aeruginosa; details: 24 h, 37 °C; for Pyocyanin production (%control), Exp.1: replicate Exp.1; for Pyocyanin production (%control), Mean: mean of Exp.1-3; for Pyocyanin production (%control), Exp.2: replicate Exp.2; for Pyocyanin production (%control), Exp.3: replicate Exp.3
Method: The effect of IsCT-Δ6-8 peptide on the production of pyocyanin pigments produced by P. aeruginosa PAO1 was assessed using the protocol described previously. In brief, 750 μL of P. aeruginosa culture (10^8 CFU/mL, final concentration) and 250 μL of the test peptide prepared in LB broth (final concentrations ranged from 37.5 μM to 150 μM) were incubated at 37 °C for 24 h with agitation (150 rpm). A P. aeruginosa culture without the IsCT-Δ6-8 peptide served as an untreated control. Thereafter, supernatants were collected by centrifugation at 3900× g for 10 min, and pyocyanin pigment was extracted twice using chloroform/0.2 N HCl. Centrifugation was performed at 3900× g for 10 min before the pink-colored solution was collected, and the absorbance was measured at […].

[3] = test system: IL-6 production in P. aeruginosa LPS-stimulated RAW 264.7 macrophages; test: IL-6 measurement (sandwich ELISA); type: cell-based, murine; details: 48 h; for IL-6 (pg/mL), Exp.1: replicate Exp.1; for IL-6 (pg/mL), Mean: mean of 2 experiments, LPS alone 4081.029; for IL-6 (pg/mL), Exp.2: replicate Exp.2
Method: RAW 264.7 cells (3.5 × 10^5) were stimulated with P. aeruginosa lipopolysaccharide (100 ng/mL; Sigma, St. Louis, MO, USA) in the presence or absence of the IsCT-Δ6-8 peptide (37.5–150 μM, final concentration). After incubation at 37 °C under 5% CO2 for 48 h, supernatants were collected. The levels of nitrite (a stable breakdown of NO) were then determined using the Griess reagent system (Promega, Madison, Wisconsin, USA). The IL-6 levels in culture supernatant were quantified with the BioLegend ELISA MAXTM Deluxe Set according to the manufacturer’s protocols.

[4] = test system: P. aeruginosa PAO1; test: Growth curve assay; type: cell-based, Pseudomonas aeruginosa; details: 150 μM; for OD600nm, Mean / OD600nm, Exp.1 / OD600nm, Exp.2: 37 °C, 150 rpm; for OD600nm, Mean: mean of 2 experiments; for OD600nm, Exp.1: replicate Exp.1; for OD600nm, Exp.2: replicate Exp.2
Method: The effect of the IsCT-Δ6-8 peptide on the growth of P. aeruginosa was assessed as previously described. A culture of P. aeruginosa PAO1 was grown at a concentration of 10^6 CFU/ mL in the presence or absence of the IsCT-Δ6-8 peptide (final concentration, 150 µM) at 37 °C, with agitation at 150 rpm. The OD600 nm was then recorded at 0, 6, 12, 18, and 24 h.

[5] = test system: sheep red blood cells; test: Hemolytic assay; type: cell-based
Method: A hemolytic assay was carried out according to the previously described method using commercially sourced sheep red blood cells (Professional Nanomed Company Limited, Bangkok, Thailand). One hundred microliters of a 2% sheep red blood cell suspension prepared in phosphate-buffered saline (PBS) pH 7.4. was incubated for 1 h at 37 °C with 100 μL of the studied peptides (final concentration of 150 µM). After centrifugation at 1000× g for 5 min, 100 μL of supernatant was transferred to new 96-well plates, and the release of hemoglobin was monitored, measuring an optical density (OD) at 405 nm using a BioTek Synergy HT microplate reader. Red blood cells treated with PBS pH 7.4 were used as a negative control, while those treated with 1% Triton X-100 were used as a positive control. The percent hemolysis was calculated as follows:(1) % Hemolysis=OD405 nm of the test peptide−OD405 nm of negative control/OD405 nm of positive control−OD405 nm of negative control × 100

[6] = peptide 37.5 µM with LPS 100 ng/mL
[7] = peptide 75 µM with LPS 100 ng/mL
[8] = peptide 150 µM with LPS 100 ng/mL

Sequence: ILGKIIKSLF [IsCT-Δ6-8]
- % Viability, Exp.1 ([1]; 37.5 µM, 37 °C, 5% CO2, MTT, OD 540 nm): 109.403%
- % Viability, Exp.2 ([1]; 37.5 µM, MTT): 94.438%
- % Viability, Exp.1 ([1]; 75 µM, MTT): 102.742%
- % Viability, Exp.2 ([1]; 75 µM, MTT): 96.302%
- % Viability, Exp.1 ([1]; 150 µM, MTT): 94.479%
- % Viability, Exp.2 ([1]; 150 µM, MTT): 100.171%
- Viability of RAW 264.7 macrophages (in words) ([1]; 37.5–150 μM, MTT, compared with untreated control): not significantly changed
- Pyocyanin production (%control), Exp.1 ([2]; 37.5 µM, 10^8 CFU/mL, LB broth, absorbance 380 nm): 124.961 %control
- Pyocyanin production (%control), Mean ([2]; 37.5 µM): 82.972 %control
- Pyocyanin production (%control), Exp.2 ([2]; 37.5 µM): 54.723 %control
- Pyocyanin production (%control), Exp.3 ([2]; 37.5 µM): 69.231 %control
- Pyocyanin production (%control), Mean ([2]; 75 µM): 69.677 %control
- Pyocyanin production (%control), Exp.1 ([2]; 75 µM): 120.493 %control
- Pyocyanin production (%control), Exp.2 ([2]; 75 µM): 42.094 %control
- Pyocyanin production (%control), Exp.3 ([2]; 75 µM): 46.444 %control
- Pyocyanin production (%control), Mean ([2]; 150 µM): 48.905 %control
- Pyocyanin production (%control), Exp.1 ([2]; 150 µM): 76.348 %control
- Pyocyanin production (%control), Exp.2 ([2]; 150 µM): 36.550 %control
- Pyocyanin production (%control), Exp.3 ([2]; 150 µM): 33.817 %control
- Effect on LPS-induced IL-6 elevation (in words) ([3]; 37.5–150 μM, especially at 150 μM (p < 0.05 vs LPS-stimulated)): reduced
- IL-6 (pg/mL), Exp.1 ([3]; peptide 37.5 µM with LPS 100 ng/mL, 37 °C): 4036.912 pg/mL
- IL-6 (pg/mL), Mean [3, 6]: 3742.794 pg/mL
- IL-6 (pg/mL), Exp.2 [3, 6]: 3448.676 pg/mL
- IL-6 (pg/mL), Mean [3, 7]: 3664.363 pg/mL
- IL-6 (pg/mL), Exp.1 [3, 7]: 3953.578 pg/mL
- IL-6 (pg/mL), Exp.2 [3, 7]: 3375.147 pg/mL
- IL-6 (pg/mL), Mean [3, 8]: 3304.069 pg/mL
- IL-6 (pg/mL), Exp.1 [3, 8]: 3514.853 pg/mL
- IL-6 (pg/mL), Exp.2 [3, 8]: 3093.284 pg/mL
- OD600nm, Mean ([4]; 0 h): 0.0000
- OD600nm, Exp.1 ([4]; 0 h): 0.0000
- OD600nm, Exp.2 ([4]; 0 h): 0.0000
- OD600nm, Mean ([4]; 6 h, untreated control 0.3954): 0.2100
- OD600nm, Exp.1 ([4]; 6 h, untreated control 0.3955): 0.2055
- OD600nm, Exp.2 ([4]; 6 h, untreated control 0.3953): 0.2145
- OD600nm, Mean ([4]; 12 h, untreated control 0.5425): 0.4723
- OD600nm, Exp.1 ([4]; 12 h, untreated control 0.5353): 0.4765
- OD600nm, Exp.2 ([4]; 12 h, untreated control 0.5498): 0.4680
- OD600nm, Mean ([4]; 18 h, untreated control 0.6067): 0.5898
- OD600nm, Exp.1 ([4]; 18 h, untreated control 0.6213): 0.5830
- OD600nm, Exp.2 ([4]; 18 h, untreated control 0.5922): 0.5965
- OD600nm, Mean ([4]; 24 h, untreated control 0.6209): 0.6033
- OD600nm, Exp.1 ([4]; 24 h, untreated control 0.6330): 0.5450
- OD600nm, Exp.2 ([4]; 24 h, untreated control 0.6088): 0.6615
- Growth of P. aeruginosa at early time points (in words) ([4]; 6 h and 12 h, compared to untreated control culture): slow growth rate
- Growth of P. aeruginosa after prolonged exposure (in words) ([4]; 18 h and 24 h, versus untreated control (p > 0.05)): comparable to that of the untreated control culture
- Hemolytic activity (in words) ([5]; sheep erythrocytes, concentrations as high as 150 μM): decreased hemolytic activity
- % Hemolysis, Exp.1 ([5]; sheep red blood cells, 1 h, 37 °C, peptides 150 μM (Triton X-100 1%), replicate Exp.1): 1.56%
- % Hemolysis, Exp.2 ([5]; sheep red blood cells, 1 h, 37 °C, peptides 150 μM (Triton X-100 1%), replicate Exp.2): 0.72%
- % Hemolysis, Exp.3 ([5]; sheep red blood cells, 1 h, 37 °C, peptides 150 μM (Triton X-100 1%), replicate Exp.3): 3.45%
